In patent US12128028B2, “Heterocyclic sulfonamide derivatives and pharmaceutical uses thereof” (METRION BIOSCIENCES LIMITED, priority 2018, dated 2024):

target: human Kv1.3 (Homo sapiens (Human), UniProt P22001); assay: Kv1.3 potency evaluation, automated patch clamp electrophysiology (QPatch HT) in CHO-Kv1.3 cells; assay type: cell-based; settings: whole-cell QPatch HT, % inhibition of charge, step to +30 mV, four concentrations, N≥3 cells, read-out: hKv1.3 IC50
Text: Biological Assays Kv1.3 Potency Evaluation Electrophysiology Recordings
A proprietary Chinese hamster ovary cell line stably expressing exogenous human a-subunits of Kv1.3 (CHO-Kv1.3) channel, validated biophysically and pharmacologically in house, was used to assess the ability of test compounds to block Kv1.3 currents using automated patch clamp electrophysiology. The QPatch HT system (Sophion Bioscience A/S, Denmark) was used with the conventional whole-cell configuration. This system is an automated, chip-based planar patch clamp device allowing for up to 48 parallel independent experiments in one experimental assay run. Cells are added to each well and drawn by suction onto a small aperture to obtain a Gigaohm seal between the cell membrane and treated silicon surface, and whole-cell recordings initiated after access is achieved by suction and/or voltage pulses. The QPatch HT uses static perfusion, whereby a small volume of recording solution or drug is added to a reservoir on the chip and the solution perfuses across the cell through quartz-lined microfluidic channels; this solution is removed by capillary action when the next sample application is made.
CHO-Kv1.3 cells were prepared for experiments by dissociation from T175 cell culture flasks using trypsin-EDTA (0.05%), cells were kept in serum free media in the cell hotel on board the QPatch HT. These cells were sampled, washed and re-suspended in extracellular recording solution by the QPatch HT immediately before application to the recording well site on the chip. Experiments were performed using the following solutions; extracellular solution contained (in mM); 150 NaCl, 10 KCl, 1 MgCl2, 3 CaCl2), 10 Glucose and 10 HEPES (pH 7.4, NaOH) and intracellular solution contained (in mM); 20 KCl, 120 KF, 10 HEPES, 10 EGTA, 5 ATP (pH 7.2, KOH).
The potency (Inhibitory Concentration 50%, IC50) of synthesized compounds against Kv1.3 was determined from concentration-response relationships established by cumulatively applying four escalating concentrations of test compound to an individual cell and a minimum of N≥3 individual cells of data per compound were used to generate the IC50 value.
On achieving the whole-cell configuration; two additions of vehicle (0.1-0.3% DMSO v/v) were applied to each cell in two bolus additions with a two minute recording period between each addition (four minutes total recording time). Following the vehicle period, four concentrations of test sample were applied as two bolus additions per test concentration at two minute intervals, and the effects on current measured during the four minute recording period.
Currents were elicited using a single step voltage protocol. From a holding potential of −80 mV the cell is depolarised to +30 mV (500 ms) resulting in an outward current before finally repolarising the cell by returning to the holding potential. The command voltage was applied at a frequency of 0.067 Hz throughout the duration of the experiment. For each sweep of the voltage protocol membrane current and the passive properties of the individual cells were recorded by QPatch assay software (version 5.2). Cursors were placed to calculate the charge (integral of the current recorded during cursor interval) between 2-490 ms (0.4-99%) of the 500 ms step to +30 mV.
The % inhibition of charge for each test concentration application period was calculated as the reduction in mean charge at the end of each concentration test period relative to the charge value measured at the end of the control (i.e. vehicle) period. Sigmoidal concentration response curves (four parameter logistic curve) were fitted to the % inhibition rom which the IC50 was determined. Curve fits were constrained at 0 and 100%.

Chain of human Kv1.3 (P22001 whole entry): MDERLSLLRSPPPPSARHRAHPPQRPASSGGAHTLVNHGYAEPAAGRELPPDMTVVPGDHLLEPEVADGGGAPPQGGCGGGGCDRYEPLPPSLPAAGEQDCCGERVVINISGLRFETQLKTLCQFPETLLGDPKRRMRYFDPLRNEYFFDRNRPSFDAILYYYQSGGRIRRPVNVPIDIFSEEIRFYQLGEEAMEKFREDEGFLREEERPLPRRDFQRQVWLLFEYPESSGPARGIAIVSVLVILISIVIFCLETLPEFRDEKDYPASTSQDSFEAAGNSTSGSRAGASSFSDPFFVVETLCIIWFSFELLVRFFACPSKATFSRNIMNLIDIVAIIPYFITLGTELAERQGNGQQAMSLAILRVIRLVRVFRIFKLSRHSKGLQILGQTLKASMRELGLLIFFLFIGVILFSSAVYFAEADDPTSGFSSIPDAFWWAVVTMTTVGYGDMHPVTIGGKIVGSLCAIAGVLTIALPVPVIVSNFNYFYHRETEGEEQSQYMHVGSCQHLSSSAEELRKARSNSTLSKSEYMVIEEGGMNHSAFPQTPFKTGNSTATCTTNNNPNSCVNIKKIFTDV

IC50	SMILES
46 nM	C[C@H]1CC(F)(F)CN1C(=O)[C@@H]1NC(C23CC(N(Cc4ccc(Cl)c(F)c4)S(=O)(=O)c4ccccc4)(C2)C3)=NC1(C)C (mixture of isomers) [Example 44]
47 nM	CC1(C)N=C(C23CC(N(Cc4ccc(Cl)c(Cl)c4)S(=O)(=O)c4ccccc4)(C2)C3)N[C@H]1C(=O)NCC1CC(F)(F)C1 (mixture of isomers) [Example 47]
48 nM	CC1(C)N=C(C23CC(N(Cc4ccc(Cl)cc4)S(=O)(=O)c4ccccc4)(C2)C3)N[C@H]1C(=O)NCC1CC1(F)F (mixture of isomers) [Example 51]
49 nM	CC(C)(C)CNC(=O)[C@@H]1NC(C23CC(N(Cc4ccc(Cl)c(F)c4)S(=O)(=O)c4ccccc4)(C2)C3)=NC1(C)C (mixture of isomers) [Example 53]
50 nM	CC1(C)N=C(C23CC(N(Cc4ccc(Cl)c(F)c4)S(=O)(=O)c4ccccc4)(C2)C3)N[C@H]1C(=O)N1CC(F)(F)C1 (mixture of isomers) [Example 55]
50 nM	CC1(C)N=C(C23CC(N(Cc4ccc(Cl)c(F)c4)S(=O)(=O)c4ccccc4)(C2)C3)N[C@H]1C(=O)NCC1CC1 (mixture of isomers) [Example 56]
51 nM	CC1(C)N=C(C23CC(N(Cc4ccc(Cl)c(F)c4)S(=O)(=O)c4ccccc4)(C2)C3)N[C@H]1C(=O)NC1CCC1 (mixture of isomers) [Example 60]
52 nM	CC1(C)N=C(C23CC(N(Cc4ccc(Cl)c(F)c4)S(=O)(=O)c4ccccc4)(C2)C3)N[C@H]1C(=O)NCC1CC(F)(F)C1 (mixture of isomers) [Example 63]
55 nM	CC1(C)N=C(C23CC(N(Cc4ccc(Cl)c(F)c4)S(=O)(=O)c4ccccc4)(C2)C3)N[C@H]1C(=O)NC1CC1 (mixture of isomers) [Example 68]
55 nM	CN(CC1CC1(F)F)C(=O)[C@@H]1NC(C23CC(N(Cc4ccc(Cl)c(F)c4)S(=O)(=O)c4ccccc4)(C2)C3)=NC1(C)C (mixture of isomers) [Example 69]
58 nM	C[C@H](NC(=O)[C@@H]1NC(C23CC(N(Cc4ccc(Cl)c(F)c4)S(=O)(=O)c4ccccc4)(C2)C3)=NC1(C)C)C(F)(F)F (mixture of isomers) [Example 73]
59 nM	CC1(C)N=C(C23CC(N(Cc4ccc(Cl)c(F)c4)S(=O)(=O)c4ccccc4)(C2)C3)N[C@H]1C(=O)NC1CC1C(F)(F)F (mixture of isomers) [Example 75]
60 nM	CC1(C)N=C(C23CC(N(Cc4ccc(Cl)c(F)c4)S(=O)(=O)c4ccccc4)(C2)C3)N[C@H]1C(=O)NCCC(F)F (mixture of isomers) [Example 79]

The next lines start with the molecule.

SMILES	IC50
CC1(C)N=C(C23CC(N(Cc4ccc(Cl)cc4)S(=O)(=O)N4CCCC4)(C2)C3)N[C@H]1C(=O)NCCC(F)(F)F (mixture of isomers) [Example 43]	46 nM
CC1(C)N=C(C23CC(N(Cc4ccc(Cl)cc4)S(=O)(=O)c4ccccc4)(C2)C3)N[C@H]1C(=O)NC1CC(C(F)F)C1 (mixture of isomers) [Example 45]	46 nM
CCCS(=O)(=O)N(Cc1ccc(Cl)c(Cl)c1)C12CC(C3=NC(C)(C)[C@H](C(=O)NCC(C)(C)C(F)(F)F)N3)(C1)C2 (mixture of isomers) [Example 46]	47 nM
CC1(C)N=C(C23CC(N(Cc4ccc(Cl)cc4)S(=O)(=O)c4ccccn4)(C2)C3)N[C@H]1C(=O)NCCC(F)(F)F (mixture of isomers) [Example 48]	48 nM
CC1(C)N=C(C23CC(N(Cc4ccc(Cl)cc4)S(=O)(=O)c4ccccc4)(C2)C3)N[C@H]1C(=O)NCC(C)(C)C(F)(F)F (mixture of isomers) [Example 49]	48 nM
CC(C)(F)CNC(=O)[C@@H]1NC(C23CC(N(Cc4ccc(Cl)c(Cl)c4)S(=O)(=O)CCC(F)F)(C2)C3)=NC1(C)C (mixture of isomers) [Example 50]	48 nM
CC1(C)N=C(C23CC(N(Cc4ccc(Cl)cc4)S(=O)(=O)c4cccc(Cl)c4)(C2)C3)N[C@H]1C(=O)NCCC(F)(F)F (mixture of isomers) [Example 52]	49 nM
CC(C)CS(=O)(=O)N(Cc1ccc(Cl)cc1)C12CC(C3=NC(C)(C)[C@H](C(=O)NCCC(F)(F)F)N3)(C1)C2 (mixture of isomers) [Example 54]	50 nM
CC1(C)N=C(C23CC(N(Cc4ccc(Cl)c(F)c4)S(=O)(=O)c4ccccc4)(C2)C3)N[C@H]1C(=O)N1CCC2(CC2)C1 (mixture of isomers) [Example 57]	50 nM
CN(CC(C)(C)F)C(=O)[C@@H]1NC(C23CC(N(Cc4ccc(Cl)c(Cl)c4)S(=O)(=O)c4ccccc4)(C2)C3)=NC1(C)C (mixture of isomers) [Example 58]	50 nM
CC1(C)N=C(C23CC(N(Cc4ccc(Cl)cc4)S(=O)(=O)c4cccc(F)c4)(C2)C3)N[C@H]1C(=O)NCCC(F)(F)F (mixture of isomers) [Example 59]	51 nM
CC1(C)N=C(C23CC(N(Cc4ccc(Cl)c(F)c4)S(=O)(=O)c4ccccc4)(C2)C3)N[C@H]1C(=O)N1CC(F)(F)C(F)(F)C1 (mixture of isomers) [Example 61]	51 nM
CC1(C)N=C(C23CC(N(Cc4ccc(Cl)c(Cl)c4)S(=O)(=O)c4ccccc4)(C2)C3)N[C@H]1C(=O)NCCC(F)(F)F (mixture of isomers) [Example 62]	52 nM
C[C@@H]1CCN(C(=O)[C@@H]2NC(C34CC(N(Cc5ccc(Cl)c(F)c5)S(=O)(=O)c5ccccc5)(C3)C4)=NC2(C)C)C1 (mixture of isomers) [Example 64]	52 nM
CC1(C)N=C(C23CC(N(Cc4ccc(F)c(Cl)c4)S(=O)(=O)c4ccccc4)(C2)C3)N[C@H]1C(=O)NCCC(F)(F)F (mixture of isomers) [Example 65]	53 nM
CC1(C)N=C(C23CC(N(Cc4ccc(Cl)cc4)S(=O)(=O)c4ccc(Cl)cc4)(C2)C3)N[C@H]1C(=O)NCCC(F)(F)F (mixture of isomers) [Example 66]	53 nM
CC1(C)N=C(C23CC(N(Cc4ccc(Cl)cc4)S(=O)(=O)CCC4CC4)(C2)C3)N[C@H]1C(=O)NCCC(F)(F)F (mixture of isomers) [Example 67]	53 nM
CC1(C)N=C(C23CC(N(Cc4ccc(Cl)cc4)S(=O)(=O)c4cccc(C#N)c4)(C2)C3)N[C@H]1C(=O)NCCC(F)(F)F (mixture of isomers) [Example 70]	56 nM
CC1(C)N=C(C23CC(N(Cc4ccc(Cl)c(F)c4)S(=O)(=O)c4ccccc4)(C2)C3)N[C@H]1C(=O)N1CCCC12CCC2 (mixture of isomers) [Example 71]	57 nM
CC1(C)N=C(C23CC(N(Cc4ccc(Cl)c(Cl)c4)S(=O)(=O)CCC(F)F)(C2)C3)N[C@H]1C(=O)NC12CC(C1)C2 (mixture of isomers) [Example 72]	57 nM
CC(F)(F)CCS(=O)(=O)N(Cc1ccc(Cl)c(Cl)c1)C12CC(C3=NC(C)(C)[C@H](C(=O)NC45CC(C4)C5)N3)(C1)C2 (mixture of isomers) [Example 74]	58 nM
CC1(C)N=C(C23CC(N(Cc4ccc(Cl)cc4)S(=O)(=O)c4ccccc4)(C2)C3)N[C@H]1C(=O)N1CCC(F)(F)CC1 (mixture of isomers) [Example 76]	60 nM
CC1(C)N=C(C23CC(N(Cc4ccc(Cl)c(F)c4)S(=O)(=O)c4ccccc4)(C2)C3)N[C@H]1C(=O)N1C2CCC1CC(F)(F)C2 (mixture of isomers) [Example 77]	60 nM
CN(C(=O)[C@@H]1NC(C23CC(N(Cc4ccc(Cl)c(F)c4)S(=O)(=O)c4ccccc4)(C2)C3)=NC1(C)C)C1CC(C(F)F)C1 (mixture of isomers) [Example 78]	60 nM
CCCCCS(=O)(=O)N(Cc1ccc(Cl)cc1)C12CC(C3=NC(C)(C)[C@H](C(=O)NCCC(F)(F)F)N3)(C1)C2 (mixture of isomers) [Example 80]	61 nM
CC1(C)N=C(C23CC(N(Cc4ccc(Cl)c(F)c4)S(=O)(=O)c4ccccc4)(C2)C3)N[C@H]1C(=O)N1CC2CC2C1 (mixture of isomers) [Example 81]	61 nM
